In US8703776B2 (Cymabay Therapeutics, Inc., priority 2011, dated 2014):

biological target: T1, human GPR131 (Homo sapiens, UniProt Q8TDU6); assay: Stimulation of cAMP in stable cell line expressing human GPR131 (FRET cAMP kit); format: cell-based; conditions: 0.5 h; 1.1 μM compound, relative to maximal stimulatory activity of lithocholic acid at 3.3 μM; 30 minutes at 37° C.; read-out: Percent Activity @ 1.1 μM (of 3.3 uM LCA) (%)
T1 construct: expressed in transfected cells
T1 sequence (Q8TDU6 1-330): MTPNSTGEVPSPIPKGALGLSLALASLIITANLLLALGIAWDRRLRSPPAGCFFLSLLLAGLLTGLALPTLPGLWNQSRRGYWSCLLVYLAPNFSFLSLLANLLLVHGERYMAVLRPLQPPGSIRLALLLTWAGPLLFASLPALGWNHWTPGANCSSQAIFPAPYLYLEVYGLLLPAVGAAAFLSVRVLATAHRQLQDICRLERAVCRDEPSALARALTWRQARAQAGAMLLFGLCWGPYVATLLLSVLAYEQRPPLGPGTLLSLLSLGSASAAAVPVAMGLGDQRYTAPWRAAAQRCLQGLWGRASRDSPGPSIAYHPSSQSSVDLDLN
Procedure: This assay was developed using a stable cell line expressing human GPR131.
To measure cAMP activity in response to GPR131 agonists, GPR131 cells suspended in DMEM/F12 medium with 1 mM IBMX were seeded in 384 well plates at 5000 cells per well. After incubating with test compounds at 37° C. for 30 minutes cAMP was measured using a fluorescene resonance energy transfer cAMP kit from Cis Bio (Bedford, Mass.) according to the manufacturer's instructions. Briefly, cells were lysed, and cAMP levels determined by competitive immunoassay using D2 labeled cAMP, and europium cryptate tagged anti cAMP antibody. Decreases in the FRET signal (fluorescence ratio (665 nm/620 […]) correspond to increases in intracellular cAMP levels.
Activities of test compounds in Table 1 below are expressed as % activity at 1.1 μM compound compared to the maximal stimulatory activity of lithocholic acid (LCA) (determined at 3.3 μM LCA)

| activation at 1.1 µM [%] | SMILES |
| --- | --- |
| 100 | Cc1nn(C)cc1CN(C)C(=O)c1cnc(SCc2c(F)cccc2Cl)n1-c1ccc(F)cc1 [Compound 532, 2-((2-Chloro-6-fluorobenzyl)thio)-N-((1,3-dimethyl-1H-pyrazol-4-yl)methyl)-1-(4-fluorophenyl)-N-methyl-1H-imidazole-5-carboxamide] |
| 96 | Cc1nn(C)cc1CN(C)C(=O)c1cnc(SCC(=O)c2ccccc2)n1-c1ccc(F)cc1 [Compound 525, N-((1,3-Dimethyl-1H-pyrazol-4-yl)methyl)-1-(4-fluorophenyl)-N-methyl-2-((2-oxo-2-phenylethyl)thio)-1H-imidazole-5-carboxamide] |
| 98 | Cc1ccc(-n2c(C(=O)N(C)Cc3ccncc3)cnc2SCc2c(F)cccc2Cl)cc1 [Compound 563, 2-((2-Chloro-6-fluorobenzyl)thio)-N-methyl-N-(pyridin-4-ylmethyl)-1-(p-tolyl)-1H-imidazole-5-carboxamide] |
| 86 | Cc1nn(C)cc1CN(C)C(=O)c1cnc(Br)n1-c1ccc(F)cc1 [Compound 590, 2-Bromo-N-((1,3-dimethyl-1H-pyrazol-4-yl)methyl)-1-(4-fluorophenyl)-N-methyl-1H-imidazole-5-carboxamine] |
| 93 | CN(Cc1ccncc1)C(=O)c1cnc(SCc2c(F)cccc2C(F)(F)F)n1-c1ccc(F)cc1 [Compound 607, 2-((2-Fluoro-6-(trifluoromethyl)benzyl)thio)-1-(4-fluorophenyl)-N-methyl-N-(pyridin-4-ylmethyl)-1H-imidazole-5-carboxamide] |
| 96 | CN(Cc1ccncc1)C(=O)c1cnc(SCc2cc(F)cc(F)c2F)n1-c1ccc(F)cc1 [Compound 619, 1-(4-Fluorophenyl)-N-methyl-N-(pyridin-4-ylmethyl)-2-((2,3,5-trifluorobenzyl)thio)-1H-imidazole-5-carboxamide] |
| 95 | CN(Cc1ccncc1)C(=O)c1cnc(SCc2c(Cl)cccc2Cl)n1-c1ccc(F)cc1 [Compound 561, 2-((2,6-Dichlorobenzyl)thio)-1-(4-fluorophenyl)-N-methyl-N-(pyridin-4-ylmethyl)-1H-imidazole-5-carboxamide] |
| 86 | CN(Cc1ccnc(C(F)(F)F)c1)C(=O)c1cnc(SCc2c(F)ccc(F)c2F)n1-c1ccc(F)cc1 [Compound 587] |
| 99 | Cc1nn(C)cc1CN(C)C(=O)c1cnc(SCc2ncccc2Cl)n1-c1ccc(F)cc1 [Compound 551] |
| 93 | Cc1nn(C)cc1CN(C)C(=O)c1cnc(SCc2ccn(C)n2)n1-c1ccc(F)cc1 [Compound 633, N-((1,3-Dimethyl-1H-pyrazol-4-yl)methyl)-1-(4-fluorophenyl)-N-methyl-2-(((1-methyl-1H-pyrazol-3-yl)methyl)thio)-1H-imidazole-5-carboxamide] |
| 100 | CN(Cc1ccncc1)C(=O)c1cnc(SCc2c(F)cccc2Cl)n1-c1ccccc1 [Compound 555, 2-((2-Chloro-6-fluorobenzyl)thio)-N-methyl-1-phenyl-N-(pyridin-4-ylmethyl)-1H-imidazole-5-carboxamide] |
| 94 | CN(Cc1ccncc1)C(=O)c1cnc(SCc2cc(F)c(F)cc2Cl)n1-c1ccc(F)cc1 [Compound 618, 2-((2-Chloro-4,5-difluorobenzyl)thio)-1-(4-fluorophenyl)-N-methyl-N-(pyridin-4-ylmethyl)-1H-imidazole-5-carboxamide] |
| 95 | CN(Cc1ccncc1)C(=O)c1cnc(CCc2c(F)ccc(F)c2F)n1-c1ccc(F)cc1 [Compound 528, 1-(4-Fluorophenyl)-N-methyl-N-(pyridin-4-ylmethyl)-2-(2,3,6-trifluorophenethyl)-1H-imidazole-5-carboxamide] |
| 98 | CN(Cc1ccncc1)C(=O)c1cnc(SCc2cccc(C(F)(F)F)c2)n1-c1ccc(F)cc1 [Compound 621, 1-(4-Fluorophenyl)-N-methyl-N-(pyridin-4-ylmethyl)-2-((3-(trifluoromethyl)benzyl)thio)-1H-imidazole-5-carboxamide] |
